From ChEMBL document CHEMBL1681700, “Cytotoxic 3,6-bis((imidazolidinone)imino)acridines: synthesis, DNA binding and molecular modeling” (Bioorg Med Chem, 2011)
Activity calls are given as the source filed them. The calls are words filed in the database; no cut-off is given here.

How the values were obtained:
[1] = Octanol-water partition coefficient, log P of the compound; type: physicochemical
[2] = system: L1210; assay: Cytotoxicity against mouse L1210 cells after 48 hrs by MTT assay; type: functional, cell-based; conditions: L1210, 48 h
[3] = system: HL-60; assay: Cytotoxicity against human HL60 cells after 48 hrs by MTT assay; type: functional, cell-based; conditions: HL-60, 48 h
[4] = species: Bos taurus; assay: Inhibition of calf thymus topoisomerase 1-mediated supercoiled DNA relaxation at 5 uM after 45 mins by ethidium bromide staining agarose gel electrophoresis
[5] = system: L1210; assay: Cytotoxicity against mouse L1210 cells after 72 hrs by trypan blue dye exclusion test; type: functional, cell-based; conditions: L1210, 72 h
[6] = system: HL-60; assay: Cytotoxicity against human HL60 cells after 72 hrs by trypan blue dye exclusion test; type: functional, cell-based; conditions: HL-60, 72 h
[7] = system: L1210; assay: Cytotoxicity against mouse L1210 cells after 48 hrs by trypan blue dye exclusion test; type: functional, cell-based; conditions: L1210, 48 h
[8] = system: Calf thymus DNA; assay: Binding affinity to calf thymus DNA assessed as hypochromic effect by UV-visible spectrophotometer; type: nucleic-acid assay; design: concentration or dose not given beside the values; conditions: Bos taurus
[9] = system: Calf thymus DNA; assay: Binding affinity to calf thymus DNA at pH 7.4 by UV-visible spectrophotometer; type: nucleic-acid assay; conditions: Bos taurus
[10] = system: Calf thymus DNA; assay: Binding affinity to A:T base pair region of calf thymus DNA by UV-visible spectrophotometer; type: nucleic-acid assay; conditions: Bos taurus
[11] = system: HL-60; assay: Cytotoxicity against human HL60 cells after 48 hrs by trypan blue dye exclusion test; type: functional, cell-based; conditions: HL-60, 48 h
[12] = system: Calf thymus DNA; assay: Binding affinity to C:G base pair region of calf thymus DNA by UV-visible spectrophotometer; type: nucleic-acid assay; conditions: Bos taurus
[13] = species: Bos taurus; assay: Inhibition of calf thymus topoisomerase 1-mediated supercoiled DNA relaxation at 40 uM after 45 mins by ethidium bromide staining agarose gel electrophoresis
[14] = system: U-937; assay: Induction of apoptosis in human U937 cells assessed as DNA fragmentation at 122 uM after 18 hrs by ethidium bromide staining agarose gel electrophoresis; type: functional, cell-based
[15] = system: HL-60; assay: Cytotoxicity against human HL60 cells after 72 hrs by MTT assay; type: functional, cell-based; conditions: HL-60, 72 h
[16] = system: L1210; assay: Cytotoxicity against mouse L1210 cells after 72 hrs by MTT assay; type: functional, cell-based; conditions: L1210, 72 h
[17] = system: HL-60; assay: Drug uptake in human HL60 cells assessed as drug accumulation in nucleus at 5 uM after 24 hrs by fluorescence analysis; type: ADME, cell-based; conditions: hl-60, 24 h
[18] = system: HL-60; assay: Cytotoxicity against human HL60 cells at 3 to 10 uM after 72 hrs; type: functional, cell-based
[19] = system: HL-60; assay: Antiproliferative activity against human HL60 cells assessed as cytostatic effect at 1 uM after 72 hrs; type: functional, cell-based
[20] = system: HL-60; assay: Drug uptake in human HL60 cells assessed as drug accumulation at 5 uM after 140 mins by fluorescence analysis; type: ADME, cell-based; conditions: hl-60, 140 min
[21] = system: HL-60; assay: Drug uptake in human HL60 cells assessed as drug distribution in plasmatic membrane and cytosol at 5 uM after 4 hrs by fluorescence analysis; type: ADME, cell-based; conditions: hl-60, 4 h

| Compound | logP [1] | inhibition [4] | Activity [8] [%] | K [9] [×10⁵ /M] | Activity [10] | Activity [12] | inhibition [13] | Drug uptake [17] | Drug uptake [20] | Drug uptake [21] | IC50 [2] [µM] | IC50 [3] [µM] | IC50 [5] [µM] | IC50 [6] [µM] | IC50 [7] [µM] | IC50 [11] [µM] | Activity [14] | IC50 [15] [µM] | IC50 [16] [µM] | further results |
| --- | --- | --- | --- | --- | --- | --- | --- | --- | --- | --- | --- | --- | --- | --- | --- | --- | --- | --- | --- | --- |
| CCCCN1C(=O)CN/C1=N\c1ccc2cc3ccc(/N=C4\NCC(=O)N4CCCC)cc3nc2c1 | 4.1 | inactive | 50 | 4.2 | inactive | Active | Active | – | – | – | 29.2 | 13.7 | 27.3 | 14.7 | 26.4 | 11.7 | Active | 16.4 | 26.1 | – |
| CCN1C(=O)CN/C1=N\c1ccc2cc3ccc(/N=C4\NCC(=O)N4CC)cc3nc2c1 | 2.17 | inactive | 34 | 7.1 | inactive | Active | Active | – | – | – | > 100 | 76.6 | > 100 | 85.2 | 91.7 | 83.8 | Active | 80.3 | > 100 | – |
| CCCN1C(=O)CN/C1=N\c1ccc2cc3ccc(/N=C4\NCC(=O)N4CCC)cc3nc2c1.Cl | 3.21 | inactive | 54 | 5.7 | inactive | Active | Active | Not Active | Not Active | Active | 45.8 | 74.1 | 65.4 | 88.6 | 44.7 | 70.6 | Active | 95.7 | 68 | – |

More lines, main results first:

| logP [1] | inhibition [4] | Activity [8] [%] | K [9] [×10⁵ /M] | Activity [10] | Activity [12] | inhibition [13] | Drug uptake [17] | Drug uptake [20] | Drug uptake [21] | Compound | IC50 [2] [µM] | IC50 [3] [µM] | IC50 [5] [µM] | IC50 [6] [µM] | IC50 [7] [µM] | IC50 [11] [µM] | Activity [14] | IC50 [15] [µM] | IC50 [16] [µM] | further results |
| --- | --- | --- | --- | --- | --- | --- | --- | --- | --- | --- | --- | --- | --- | --- | --- | --- | --- | --- | --- | --- |
| 4.99 | inactive | 45 | 2.8 | inactive | Active | Active | – | – | – | CCCCCN1C(=O)CN/C1=N\c1ccc2cc3ccc(/N=C4\NCC(=O)N4CCCCC)cc3nc2c1 | 13.7 | 8.37 | 15.7 | 7.18 | 12.4 | 5.31 | Active | 8.59 | 15.2 | – |
| 5.88 | inactive | 47 | 1.9 | inactive | Active | Active | Active | Active | Active | CCCCCCN1C(=O)CN/C1=N\c1ccc2cc3ccc(/N=C4\NCC(=O)N4CCCCCC)cc3nc2c1.Cl | 5.52 | 4.61 | 5.28 | 2.12 | 4.31 | 2.44 | Active | 4.94 | 5.99 | Activity [18]: Toxic; Activity [19]: Active |
